{
  "source": "patent US10577378B2",
  "about": "“EIF4A-inhibiting compounds and methods related thereto” (eFFECTOR Therapeutics, Inc., priority 2015, dated 2020)",
  "note": "pIC50: −log10 of the molar value.",
  "data": [
    {"test_system": "MDA-MB-231 human breast cancer cells", "test": "Cell proliferation assay (CellTiter-Glo, 72 hours treatment)", "format": "cell-based", "details": "Homo sapiens; MDA-MB-231 cells, 72 hours at 37° C., CellTiter-Glo; read-out: MDA-MB-231 cell proliferation assay (IC50)", "how_it_was_run": "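MDA-MB-231 cells seeded at 2,500 cells/well, treated next day with compound or DMSO vehicle for 72 h at 37 °C. Proliferation read by CellTiter-Glo; IC50 from sigmoidal non-linear regression, binned as +++ (<100 nM), ++ (100–1000 nM), + (>1000 nM).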", "values": [
      {"compound": "CCN(CC)C[C@H]1[C@@H](O)[C@@]2(O)c3c(cc(Cl)nc3OC)O[C@@]2(c2ccc(C#N)cc2)[C@@H]1c1ccccc1", "note": "(racemic) [159Fb, Rac-4-((5aR,6S,7S,8R,8aS)-3-chloro-7-((diethylamino)methyl)-8,8a-dihydroxy-1-methoxy-6-phenyl-6,7,8,8a-tetrahydro-5aH-cyclopenta[4,5]furo[3,2-c]pyridin-5a-yl)benzonitrile]", "pIC50": "> 7.00"},
      {"compound": "COc1cncc2c1[C@]1(O)[C@H](O)[C@H](CN(C)Cc3cccnc3)[C@@H](c3ccccc3)[C@]1(c1ccc(C#N)cc1)O2", "note": "[278F, 4-((4bS,5R,6S,7S,7aR)-4b,5-dihydroxy-4-methoxy-6-((methyl(pyridin-3-ylmethyl)amino)methyl)-7-phenyl-4b,5,6,7-tetrahydro-7aH-cyclopenta[4,5]furo[2,3-c]pyridin-7a-yl)benzonitrile]", "pIC50": "6.00 to 7.00"},
      {"compound": "OC[C@H]1[C@@H](O)[C@@]2(O)c3ncc(Cl)cc3O[C@@]2(c2ccc(Br)cc2)[C@@H]1c1ccccc1", "note": "(racemic) [55F, Rac-(5aR,6S,7S,8R,8aS)-5a-(4-bromophenyl)-3-chloro-7-(hydroxymethyl)-6-phenyl-5a,6,7,8-tetrahydro-8aH-cyclopenta[4,5]furo[3,2-b]pyridine-8,8a-diol]", "pIC50": "6.00 to 7.00"},
      {"compound": "Clc1cnc2c(c1)O[C@@]1(c3ccc(Br)cc3)[C@H](c3ccccc3)C[C@@H]3O[C@@]231", "note": "(racemic) [63F, Rac-(1aS,3S,3aR,8bS)-3a-(4-bromophenyl)-6-chloro-3-phenyl-1a,2,3,3a-tetrahydro-oxireno[2″,3″:1′,5′]cyclopenta[1′,2′:4,5]furo[3,2-b]pyridine]", "pIC50": "< 6.00"},
      {"compound": "CN(C)C(=O)[C@H]1[C@@H](O)[C@@]2(O)c3ncc(Cl)cc3O[C@@]2(c2ccc(S(C)(=O)=O)cc2)[C@@H]1c1ccccc1", "note": "(single isomer, unassigned) [12F]", "pIC50": "< 6.00"},
      {"compound": "N#Cc1ccc([C@@]23Oc4cc(Cl)cnc4[C@]2(O)[C@@H](CN)C[C@H]3c2ccccc2)cc1", "note": "(racemic) [175F, Rac-4-((5aR,6S,8R,8aR)-8-(aminomethyl)-3-chloro-8a-hydroxy-6-phenyl-6,7,8,8a-tetrahydro-5aH-cyclopenta[4,5]furo[3,2-b]pyridin-5a-yl)benzonitrile]", "pIC50": "> 7.00"},
      {"compound": "COc1nc(C#N)cc2c1[C@]1(O)[C@H](O)[C@H](CN(C)C)[C@@H](c3ccccc3)[C@]1(c1ccc(Cl)cc1)O2", "note": "(single isomer, unassigned) [145F]", "pIC50": "> 7.00"},
      {"compound": "COc1cncc2c1[C@]1(O)[C@H](O)[C@H](S(=O)(=O)c3ccccc3)[C@@H](c3ccccc3)[C@]1(c1ccc(C#N)cc1)O2", "note": "(racemic) [118F, Rac-4-((4bS,5S,6R,7S,7aR)-4b,5-dihydroxy-4-methoxy-7-phenyl-6-(phenylsulfonyl)-4b,5,6,7-tetrahydro-7aH-cyclopenta[4,5]furo[2,3-c]pyridin-7a-yl)benzonitrile]", "pIC50": "6.00 to 7.00"},
      {"compound": "COc1nc(C#N)cc2c1[C@]1(O)[C@H](O)[C@H](CN3CCN(C)CC3)[C@@H](c3ccccc3)[C@]1(c1ccc(C#N)cc1)O2", "note": "(racemic) [198Fb, Rac-(5aR,6S,7S,8R,8aS)-5a-(4-cyanophenyl)-8,8a-dihydroxy-1-methoxy-7-((4-methylpiperazin-1-yl)methyl)-6-phenyl-5a,7,8,8a-tetrahydro-6H-cyclopenta[4,5]furo[3,2-c]pyridine-3-carbonitrile]", "pIC50": "> 7.00"},
      {"compound": "N#Cc1ccc([C@@]23Oc4cc(Cl)cnc4[C@]2(O)[C@@H](O)[C@H](CN2CCCC2)[C@H]3c2ccccc2)cc1", "note": "(racemic) [41Fc, rac-4-((5aR,6S,7S,8S,8aS)-3-chloro-8,8a-dihydroxy-6-phenyl-7-(pyrrolidin-1-ylmethyl)-6,7,8,8a-tetrahydro-5aH-cyclopenta[4,5]furo[3,2-b]pyridin-5a-yl)benzonitrile]", "pIC50": "< 6.00"},
      {"compound": "COc1cncc2c1[C@]1(O)[C@](O)(CN3CCOCC3)C[C@@H](c3ccccc3)[C@]1(c1ccc(C#N)cc1)O2", "note": "(racemic) [287F, Rac-4-((4bS,5R,7S,7aR)-4b,5-dihydroxy-4-methoxy-5-(morpholinomethyl)-7-phenyl-4b,5,6,7-tetrahydro-7aH-cyclopenta[4,5]furo[2,3-c]pyridin-7a-yl)benzonitrile]", "pIC50": "< 6.00"},
      {"compound": "N#Cc1ccc([C@@]23Oc4cc(Cl)cnc4[C@]2(O)[C@@H](CO)C[C@H]3c2ccccc2)cc1", "note": "(racemic) [167F, Rac-4-((5aR,6S,8R,8aR)-3-chloro-8a-hydroxy-8-(hydroxymethyl)-6-phenyl-6,7,8,8a-tetrahydro-5aH-cyclopenta[4,5]furo[3,2-b]pyridin-5a-yl)benzonitrile]", "pIC50": "6.00 to 7.00"},
      {"compound": "COc1nccc2c1[C@]1(O)[C@H](O)[C@H](CN(C)C)[C@@H](c3ccccc3)[C@]1(c1ccc(C(F)F)cc1)O2", "note": "(racemic) [148F, Rac-(5aR,6S,7S,8R,8aS)-5a-(4-(difluoromethyl)phenyl)-7-((dimethylamino)methyl)-1-methoxy-6-phenyl-5a,6,7,8-tetrahydro-8aH-cyclopenta[4,5]furo[3,2-c]pyridine-8,8a-diol]", "pIC50": "< 6.00"},
      {"compound": "CN(C)C(=O)[C@H]1[C@@H](O)[C@@]2(O)c3ncc(C#N)cc3O[C@@]2(c2ccc(C#N)cc2)[C@@H]1c1ccccc1", "note": "(single isomer, unassigned) [2F]", "pIC50": "6.00 to 7.00"},
      {"compound": "COc1nc(C#N)cc2c1[C@]1(O)[C@H](O)[C@H](CN)[C@@H](c3ccccc3)[C@]1(c1ccc(C#N)cc1)O2", "note": "(racemic) [293F, Rac-(5aR,6S,7S,8R,8aS)-7-(aminomethyl)-5a-(4-cyanophenyl)-8,8a-dihydroxy-1-methoxy-6-phenyl-5a,7,8,8a-tetrahydro-6H-cyclopenta[4,5]furo[3,2-c]pyridine-3-carbonitrile]", "pIC50": "> 7.00"},
      {"compound": "COc1nc(Cl)cc2c1[C@]1(O)[C@H](O)[C@H](CN3CCN(C)CC3)[C@@H](c3ccccc3)[C@]1(c1ccc(C#N)cc1)O2", "note": "(single isomer, unassigned) [198Fa]", "pIC50": "> 7.00"},
      {"compound": "N#Cc1ccc([C@@]23Oc4cc(Cl)cnc4[C@]2(O)[C@H](O)[C@@H](CN2CCCC2)[C@H]3c2ccccc2)cc1", "note": "(racemic) [41Fa, Rac-4-((5aR,6S,7R,8R,8aS)-3-chloro-8,8a-dihydroxy-6-phenyl-7-(pyrrolidin-1-ylmethyl)-6,7,8,8a-tetrahydro-5aH-cyclopenta[4,5]furo[3,2-b]pyridin-5a-yl)benzonitrile]", "pIC50": "< 6.00"},
      {"compound": "COc1cncc2c1[C@]1(O)[C@@H](CNCc3ccnn3C)[C@H](CO)[C@@H](c3ccccc3)[C@]1(c1ccc(Br)cc1)O2", "note": "(racemic) [203F, Rac-(4bR,5R,6R,7S,7aR)-7a-(4-bromophenyl)-6-(hydroxymethyl)-4-methoxy-5-((((1-methyl-1H-pyrazol-5-yl)methyl)amino)methyl)-7-phenyl-5,6,7,7a-tetrahydro-4bH-cyclopenta[4,5]furo[2,3-c]pyridin-4b-ol]", "pIC50": "> 7.00"},
      {"compound": "CN(C)C(=O)[C@H]1[C@@H](O)[C@@]2(O)c3cnc(C#N)cc3O[C@@]2(c2ccc(C#N)cc2)[C@@H]1c1ccccc1", "note": "(racemic) [14F, rac-(5aR,6S,7R,8R,8aS)-3-cyano-5a-(4-cyanophenyl)-8,8a-dihydroxy-N,N-dimethyl-6-phenyl-5a,7,8,8a-tetrahydro-6H-cyclopenta[4,5]furo[3,2-c]pyridine-7-carboxamide]", "pIC50": "6.00 to 7.00"},
      {"compound": "COc1cncc2c1[C@]1(O)[C@H](O)[C@H](C(=O)NC3COC3)[C@@H](c3ccccc3)[C@]1(c1ccc(Br)cc1)O2", "note": "(racemic) [239F, Rac-(4bS,5R,6R,7S,7aR)-7a-(4-bromophenyl)-4b,5-dihydroxy-4-methoxy-N-(oxetan-3-yl)-7-phenyl-4b,6,7,7a-tetrahydro-5H-cyclopenta[4,5]furo[2,3-c]pyridine-6-carboxamide]", "pIC50": "> 7.00"},
      {"compound": "COc1nc(Cl)cc2c1[C@]1(O)[C@H](O)[C@H](C(=O)N3CC(C(F)F)C3)[C@@H](c3ccccc3)[C@]1(c1ccc(Br)cc1)O2", "note": "(racemic) [215F, Rac-((5aR,6S,7R,8R,8aS)-5a-(4-bromophenyl)-3-chloro-8,8a-dihydroxy-1-methoxy-6-phenyl-5a,7,8,8a-tetrahydro-6H-cyclopenta[4,5]furo[3,2-c]pyridin-7-yl)(3-(difluoromethyl)azetidin-1-yl)methanone]", "pIC50": "> 7.00"},
      {"compound": "CC(C)n1cc2c(n1)[C@]1(O)[C@H](O)[C@H](C(=O)N(C)C)[C@@H](c3ccccc3)[C@]1(c1ccc(C#N)cc1)O2", "note": "(racemic) [80F, rac-(4aR,5S,6R,7R,7aS)-4a-(4-cyanophenyl)-7,7a-dihydroxy-2-isopropyl-N,N-dimethyl-5-phenyl-2,4a,5,6,7,7a-hexahydrocyclopenta[4,5]furo[3,2-c]pyrazole-6-carboxamide]", "pIC50": "< 6.00"},
      {"compound": "CN(C)C(=O)[C@@]12C[C@@H]1[C@@]1(O)c3ncc(Cl)cc3O[C@@]1(c1ccc(C#N)cc1)[C@@H]2c1ccccc1", "note": "(racemic) [31F, Rac-(5aR,6R,6aS,7aS,7bR)-3-chloro-5a-(4-cyanophenyl)-7b-hydroxy-N,N-dimethyl-6-phenyl-5a,7,7a,7b-tetrahydrocyclopropa[4′,5′]cyclopenta[1′,2′:4,5]furo[3,2-b]pyridine-6a(6H)-carboxamide]", "pIC50": "< 6.00"},
      {"compound": "COc1cncc2c1[C@]1(O)[C@@H]3OC(=O)N[C@@H]3[C@@H](c3ccccc3)[C@]1(c1ccc(C(F)F)cc1)O2", "note": "(racemic) [269F, rac-(3aR,4R,4aR,9bS,9cR)-4a-(4-(difluoromethyl)phenyl)-9b-hydroxy-9-methoxy-4-phenyl-3,3a,4,4a,9b,9c-hexahydro-2H-oxazolo[4″,5″:4′,5′]cyclopenta[1′,2′:4,5]furo[2,3-c]pyridin-2-one]", "pIC50": "> 7.00"},
      {"compound": "COc1nc(Cl)cc2c1[C@]1(O)[C@H](O)[C@H](CN)[C@@H](c3ccccc3)[C@]1(c1ccc(Br)cc1)O2", "note": "(racemic) [292F, Rac-(5aR,6S,7S,8R,8aS)-7-(aminomethyl)-5a-(4-bromophenyl)-3-chloro-1-methoxy-6-phenyl-5a,6,7,8-tetrahydro-8aH-cyclopenta[4,5]furo[3,2-c]pyridine-8,8a-diol]", "pIC50": "> 7.00"}
    ]}
  ]
}
